Target: MCH receptor (SLC-1) (UniProt Q99705)
Assay: MCH receptor antagonistic activity using GTPγS binding assay
Format: biochemical, human
Details: [35S]-GTPγS binding, membrane fractions of SLC-1 expression CHO cells, 3×10^−10 M MCH, 25° C. 1 hr; read-out: Inhibitory Activity (IC50 value: nM)
Experimental: Using human SLC-1 expression CHO cell clone 57 and rat SLC-1 expression CHO cell clone 44 described in WO01/82925, membrane fractions of SLC-1 expression CHO cells were prepared by the following method. In phosphate buffered saline (pH 7.4) supplemented with 5 mM EDTA (ethylenediaminetetraacetic acid) were suspended human and rat SLC-1 expression CHO cells (1×10^8) and centrifuged. Homogenate buffer (10 ml, 10 mM […], 5 mM EDTA, pH 7.5) was added to the pellets of the cells and, using Polytron Homogenizer, the mixture was homogenated. The supernatant obtained after centrifugation at 400×g for 15 min was further centrifuged at 100,000×g for 1 hr to give precipitate of the membrane fraction. The precipitate was suspended in 2 ml of an assay buffer [50 mM Tris-HCl (pH 7.5), 1 mM EDTA, 0.1% BSA (bovine serum albumin), 10 mM MgCl2, 100 mM NaCl, 1 μM GDP (guanosine 5′-diphosphate), 0.25 mM PMSF (phenylmethylsulfonyl fluoride), […]] and centrifuged at 100,000×g for 1 hr. The membrane fraction recovered as precipitate was suspended again in 20 ml of an assay buffer, and after dispensing, preserved at −80° C. and used upon thawing each time when in use.
The MCH receptor antagonistic activity of the test compound was determined as follows. The membrane fractions of SLC-1 expression CHO cells (171 μl) diluted with an assay buffer was dispensed to a polypropylene 96 well plate and 3×10^−10 M MCH (2 μl) diluted with DMSO solution, test compound solution (2 μl) diluted to various concentrations and [^35S]-Guanosine 5′-(γ-thio)triphosphate (25 μl, Daiichi Pure Chemicals Co., Ltd.) were respectively added (cellular membrane final concentration: 20 μg/ml, [^35S]-Guanosine 5′-(γ-thio)triphosphate final concentration: 0.33 nM). The reaction mixture was reacted at 25° C. for 1 hr with stirring, suction filtered with a glass filter (GF-C) and washed 3 times with a wash solution (300 μl, 50 mM Tris-HCl buffer, pH 7.5). Liquid scintillator ([…]) was added to the glass filter and the residual radioactivity was determined by a liquid scintillation counter.
Binding inhibition (%)=(radioactivity upon addition of test compound and MCH−radioactivity upon addition of DMSO solution)/(radioactivity upon addition of MCH−radioactivity upon addition of DMSO solution)×100
From the binding inhibition (%), IC50 of the test compound was calculated.

SMILES | IC50
Cc1c(NC(=O)c2ccc(OCC3CC3)cc2)ccc2cc(CNCCCCS(C)(=O)=O)cnc12 [Ex. 27, 4-(cyclopropylmethoxy)-N-[8-methyl-3-({[4-(methylsulfonyl)butyl]amino}methyl)quinolin-7-yl]benzamide] | 1.6 nM
Cc1c(NC(=O)c2ccc(C#CC3CC3)cc2)ccc2cc(CNCCCS(C)(=O)=O)cnc12 [Ex. 44, 4-(cyclopropylethynyl)-N-[8-methyl-3-({[3-(methylsulfonyl)propyl]amino}methyl)quinolin-7-yl]benzamide] | 2.2 nM
Cc1c(NC(=O)c2ccc(OCC3CC3)cc2F)ccc2cc(CNC3CCS(=O)(=O)CC3)cnc12 [Ex. 34, 4-(cyclopropylmethoxy)-N-(3-{[(1,1-dioxidotetrahydro-2H-thiopyran-4-yl)amino]methyl}-8-methylquinolin-7-yl)-2-fluorobenzamide] | 2.7 nM
Cc1c(NC(=O)c2ccc(OCCC3CC3)cc2F)ccc2cc(CNC3CCS(=O)(=O)CC3)cnc12 [Ex. 23, 4-(2-cyclopropylethoxy)-N-(3-{[(1,1-dioxidotetrahydro-2H-thiopyran-4-yl)amino]methyl}-8-methylquinolin-7-yl)-2-fluorobenzamide] | 1.5 nM
Cc1c(NC(=O)c2ccc(C#CC3CC3)cc2)ccc2cc(CNC3CCN(S(C)(=O)=O)CC3)cnc12 [Ex. 42, 4-(cyclopropylethynyl)-N-[8-methyl-3-({[1-(methylsulfonyl)piperidin-4-yl]amino}methyl)quinolin-7-yl]benzamide] | 2.3 nM
Cc1c(NC(=O)c2ccc(OCCC3CC3)cc2F)ccc2cc(CNC3CC[S+]([O-])CC3)cnc12 (stereo not drawn) [Ex. 24, 4-(2-cyclopropylethoxy)-2-fluoro-N-(8-methyl-3-{[(trans-1-oxidotetrahydro-2H-thiopyran-4-yl)amino]methyl}quinolin-7-yl)benzamide] | 1.5 nM
Cc1c(NC(=O)c2ccc(OCC3CC3)cc2)ccc2cc(CNCCCS(C)(=O)=O)cnc12 [Ex. 2, 4-(cyclopropylmethoxy)-N-[8-methyl-3-({[3-(methylsulfonyl)propyl]amino}methyl)quinolin-7-yl]benzamide] | 2.3 nM
Cc1c(NC(=O)c2ccc(C#CC3CC3)cc2)ccc2cc(CNC3CCS(=O)(=O)CC3)cnc12 [Ex. 41, 4-(cyclopropylethynyl)-N-(3-{[(1,1-dioxidotetrahydro-2H-thiopyran-4-yl)amino]methyl}-8-methylquinolin-7-yl)benzamide] | 2.2 nM
Cc1c(NC(=O)c2ccc(OCC3CC3)cc2)ccc2cc(C(C)NCCCS(C)(=O)=O)cnc12 (stereo not drawn) [Ex. 3, 4-(cyclopropylmethoxy)-N-[8-methyl-3-(1-{[3-(methylsulfonyl)propyl]amino}ethyl)quinolin-7-yl]benzamide] | 2.2 nM
Cc1c(NC(=O)c2ccc(OCC3CC3)cc2)ccc2cc(CNCC3CCN(S(C)(=O)=O)CC3)cnc12 [Ex. 14, 4-(cyclopropylmethoxy)-N-{8-methyl-3-[({[1-(methylsulfonyl)piperidin-4-yl]methyl}amino)methyl]quinolin-7-yl}benzamide] | 3 nM
Cc1c(NC(=O)c2ccc(OCCC3CC3)cc2)ccc2cc(CNC3CC[S+]([O-])CC3)cnc12 (stereo not drawn) [Ex. 21, 4-(2-cyclopropylethoxy)-N-(8-methyl-3-{[(trans-1-oxidotetrahydro-2H-thiopyran-4-yl)amino]methyl}quinolin-7-yl)benzamide] | 2.7 nM
O=C(Nc1ccc2cc(CNC3CCS(=O)(=O)CC3)ccc2c1)c1ccc(OCC2CC2)cc1 [Ex. 46, 4-(cyclopropylmethoxy)-N-(6-{[(1,1-dioxidotetrahydro-2H-thiopyran-4-yl)amino]methyl}naphthalen-2-yl)benzamide] | 4.4 nM
Cc1c(NC(=O)c2ccc(OCC3CC3)cc2F)ccc2cc(CNC3CC[S+]([O-])CC3)cnc12 (stereo not drawn) [Ex. 36, 4-(cyclopropylmethoxy)-2-fluoro-N-(8-methyl-3-{[(cis-1-oxidotetrahydro-2H-thiopyran-4-yl)amino]methyl}quinolin-7-yl)benzamide] | 3.4 nM
Cc1c(NC(=O)c2ccc(OCC3CC3)cc2F)ccc2cc(CNC3CC[S+]([O-])CC3)cnc12 (stereo not drawn) [Ex. 35, 4-(cyclopropylmethoxy)-2-fluoro-N-(8-methyl-3-{[(trans-1-oxidotetrahydro-2H-thiopyran-4-yl)amino]methyl}quinolin-7-yl)benzamide] | 5.6 nM
Cc1c(NC(=O)c2ccc(OCC3CC3)cc2)ccc2cc(CNCCCC[S+](C)[O-])cnc12 (stereo not drawn) [Ex. 26, 4-(cyclopropylmethoxy)-N-[8-methyl-3-({[4-(methylsulfinyl)butyl]amino}methyl)quinolin-7-yl]benzamide] | 4.6 nM

Further lines, results first:

IC50 | SMILES
1.1 nM | Cc1c(NC(=O)c2ccc(OCCC3CC3)cc2)ccc2cc(CNCCCS(C)(=O)=O)cnc12 [Ex. 18, 4-(2-cyclopropylethoxy)-N-[8-methyl-3-({[3-(methylsulfonyl)propyl]amino}methyl)quinolin-7-yl]benzamide]
2.8 nM | Cc1c(NC(=O)c2ccc(OCC3CC3)cc2)ccc2cc(CNCC(C)(C)CS(C)(=O)=O)cnc12 [Ex. 4, 4-(cyclopropylmethoxy)-N-[3-({[2,2-dimethyl-3-(methylsulfonyl)propyl]amino}methyl)-8-methylquinolin-7-yl]benzamide]
3.7 nM | Cc1c(NC(=O)c2ccc(OCC3CC3)cc2)ccc2cc(C(C)NCCNS(C)(=O)=O)cnc12 (stereo not drawn) [Ex. 7, 4-(cyclopropylmethoxy)-N-{8-methyl-3-[1-({2-[(methylsulfonyl)amino]ethyl}amino)ethyl]quinolin-7-yl}benzamide]
1.4 nM | Cc1c(NC(=O)c2ccc(OCCC3CC3)cc2)ccc2cc(CNC3CCS(=O)(=O)CC3)cnc12 [Ex. 20, 4-(2-cyclopropylethoxy)-N-(3-{[(1,1-dioxidotetrahydro-2H-thiopyran-4-yl)amino]methyl}-8-methylquinolin-7-yl)benzamide]
4.6 nM | Cc1c(NC(=O)c2ccc(OCC3CC3)cc2)ccc2cc(C(C)NC3CCS(=O)(=O)CC3)cnc12 (stereo not drawn) [Ex. 28, 4-(cyclopropylmethoxy)-N-(3-{1-[(1,1-dioxidotetrahydro-2H-thiopyran-4-yl)amino]ethyl}-8-methylquinolin-7-yl)benzamide]
1.2 nM | Cc1c(NC(=O)c2ccc(OCCC3CC3)cc2F)ccc2cc(CNC3CC[S+]([O-])CC3)cnc12 (stereo not drawn) [Ex. 25, 4-(2-cyclopropylethoxy)-2-fluoro-N-(8-methyl-3-{[cis-1-oxidotetrahydro-2H-thiopyran-4-yl)amino]methyl}quinolin-7-yl)benzamide]
4.7 nM | Cc1c(NC(=O)c2ccc(C#CC3CC3)cc2)ccc2cc(CNCC3(O)CCS(=O)(=O)CC3)cnc12 [Ex. 43, 4-(cyclopropylethynyl)-N-[3-({[(4-hydroxy-1,1-dioxidotetrahydro-2H-thiopyran-4-yl)methyl]amino}methyl)-8-methylquinolin-7-yl]benzamide]
6.5 nM | Cc1c(NC(=O)c2ccc(OCC3CC3)cc2)ccc2cc(CNC3CC[S+]([O-])CC3)cnc12 (stereo not drawn) [Ex. 32, 4-(cyclopropylmethoxy)-N-(8-methyl-3-{[(trans-1-oxidotetrahydro-2H-thiopyran-4-yl)amino]methyl}quinolin-7-yl)benzamide]
4.1 nM | Cc1c(NC(=O)c2ccc(OCC3CC3)cc2)ccc2cc(CNC3CC[S+]([O-])CC3)cnc12 (stereo not drawn) [Ex. 33, 4-(cyclopropylmethoxy)-N-(8-methyl-3-{[(cis-1-oxidotetrahydro-2H-thiopyran-4-yl)amino]methyl}quinolin-7-yl)benzamide]
